According to patent publication US5451581A, “Antibiotic LL-14E605β and O-methyl-LL-14E605β” (priority 1993, dated 1995):

Legend:
[1] = system: Bacillus cereus (Bacto); test: In vitro antibacterial activity, standard agar dilution (MIC); format: cell-based; conditions: Mueller-Hinton agar, about 18 hours, approximately 35° C.
Method: (§1) The in vitro antibacterial activity of LL-14E605β and O-methyl-LL-14E605β is determined against a spectrum of gram positive and gram-negative bacteria by a standard agar dilution method. Mueller-Hinton agar containing two fold decreasing concentrations of the antibiotics is poured into petri plates. The agar surfaces are inoculated with 1 to 5×10^4 colony forming units of bacteria by means of a Steer's replicating device. The lowest concentration of the LL-14E605 antibiotics that inhibits growth of a bacterial strain after about 18 hours of incubation at approximately 35° C. is recorded as the minimal inhibitory concentration (MIC) for that strain.

[2] = system: Enterococcus avium (ID-3953); test: as above; format: cell-based; conditions: Mueller-Hinton agar, about 18 hours, approximately 35° C.
Method: as §1

[3] = system: Enterococcus faecalis (12201); test: as above; format: cell-based; conditions: Mueller-Hinton agar, about 18 hours, approximately 35° C.
Method: as §1

[4] = system: Enterococcus faecalis (ATCC 29212); test: as above; format: cell-based; conditions: Mueller-Hinton agar, about 18 hours, approximately 35° C.
Method: as §1

[5] = system: Enterococcus faecalis (ID-1829); test: as above; format: cell-based; conditions: Mueller-Hinton agar, about 18 hours, approximately 35° C.
Method: as §1

[6] = system: Enterococcus faecalis (ID-2131); test: as above; format: cell-based; conditions: Mueller-Hinton agar, about 18 hours, approximately 35° C.
Method: as §1

[7] = system: Enterococcus faecalis (ID-4168); test: as above; format: cell-based; conditions: Mueller-Hinton agar, about 18 hours, approximately 35° C.
Method: as §1

[8] = system: Enterococcus faecium (12202); test: as above; format: cell-based; conditions: Mueller-Hinton agar, about 18 hours, approximately 35° C.
Method: as §1

[9] = system: Enterococcus faecium (ID-3301); test: as above; format: cell-based; conditions: Mueller-Hinton agar, about 18 hours, approximately 35° C.
Method: as §1

[10] = system: Enterococcus faecium (ID-4133); test: as above; format: cell-based; conditions: Mueller-Hinton agar, about 18 hours, approximately 35° C.
Method: as §1

[11] = system: Escherichia coli (ATCC 25922); test: as above; format: cell-based; conditions: Mueller-Hinton agar, about 18 hours, approximately 35° C.
Method: as §1

[12] = system: Escherichia coli (J2175); test: as above; format: cell-based; conditions: Mueller-Hinton agar, about 18 hours, approximately 35° C.
Method: as §1

[13] = system: Escherichia coli (J2445); test: as above; format: cell-based; conditions: Mueller-Hinton agar, about 18 hours, approximately 35° C.
Method: as §1

[14] = system: Micrococcus luteus (ATCC 9341); test: as above; format: cell-based; conditions: Mueller-Hinton agar, about 18 hours, approximately 35° C.
Method: as §1

[15] = system: Morganella morganii (VGH 84-11); test: as above; format: cell-based; conditions: Mueller-Hinton agar, about 18 hours, approximately 35° C.
Method: as §1

[16] = system: Pseudomanas aeruginosa (ATCC 27853); test: as above; format: cell-based; conditions: Mueller-Hinton agar, about 18 hours, approximately 35° C.
Method: as §1

[17] = system: Staphylococcus aureus (4379); test: as above; format: cell-based; conditions: Mueller-Hinton agar, about 18 hours, approximately 35° C.
Method: as §1

[18] = system: Staphylococcus aureus (ATCC 29213); test: as above; format: cell-based; conditions: Mueller-Hinton agar, about 18 hours, approximately 35° C.
Method: as §1

[19] = system: Staphylococcus aureus (ID-2371); test: as above; format: cell-based; conditions: Mueller-Hinton agar, about 18 hours, approximately 35° C.
Method: as §1

[20] = system: Staphylococcus aureus (ID-2727); test: as above; format: cell-based; conditions: Mueller-Hinton agar, about 18 hours, approximately 35° C.
Method: as §1

[21] = system: Staphylococcus aureus (ID-3105); test: as above; format: cell-based; conditions: Mueller-Hinton agar, about 18 hours, approximately 35° C.
Method: as §1

[22] = system: Staphylococcus aureus (NEMC-89-4); test: as above; format: cell-based; conditions: Mueller-Hinton agar, about 18 hours, approximately 35° C.
Method: as §1

[23] = system: Staphylococcus aureus (SMITH); test: as above; format: cell-based; conditions: Mueller-Hinton agar, about 18 hours, approximately 35° C.
Method: as §1

[24] = system: Staphylococcus hemolyticus (ID 4061); test: as above; format: cell-based; conditions: Mueller-Hinton agar, about 18 hours, approximately 35° C.
Method: as §1

[25] = system: Staphylococcus, coagiuase negative (ID-4615); test: as above; format: cell-based; conditions: Mueller-Hinton agar, about 18 hours, approximately 35° C.
Method: as §1

[26] = system: Staphylococcus, coagluase negative (ID-3120); test: as above; format: cell-based; conditions: Mueller-Hinton agar, about 18 hours, approximately 35° C.
Method: as §1

[27] = system: Staphylococcus, coagluase negative (ID-3135); test: as above; format: cell-based; conditions: Mueller-Hinton agar, about 18 hours, approximately 35° C.
Method: as §1

[28] = system: Staphylococcus, coagluase negative (ID-3276); test: as above; format: cell-based; conditions: Mueller-Hinton agar, about 18 hours, approximately 35° C.
Method: as §1

[29] = system: Staphylococcus, coagluase negative (ID-3941); test: as above; format: cell-based; conditions: Mueller-Hinton agar, about 18 hours, approximately 35° C.
Method: as §1

[30] = Relative activity of the components of the LL-14E605 complex; conditions: listed as LL-14E605β

SMILES	Minimal Inhibitory Concentration (MIC) [1] [µg/mL]	Minimal Inhibitory Concentration (MIC) [2] [µg/mL]	Minimal Inhibitory Concentration (MIC) [3] [µg/mL]	Minimal Inhibitory Concentration (MIC) [4] [µg/mL]	Minimal Inhibitory Concentration (MIC) [5] [µg/mL]	Minimal Inhibitory Concentration (MIC) [6] [µg/mL]	Minimal Inhibitory Concentration (MIC) [7] [µg/mL]	Minimal Inhibitory Concentration (MIC) [8] [µg/mL]	Minimal Inhibitory Concentration (MIC) [9] [µg/mL]	Minimal Inhibitory Concentration (MIC) [10] [µg/mL]	Minimal Inhibitory Concentration (MIC) [11] [µg/mL]	Minimal Inhibitory Concentration (MIC) [12] [µg/mL]	Minimal Inhibitory Concentration (MIC) [13] [µg/mL]	Minimal Inhibitory Concentration (MIC) [14] [µg/mL]	Minimal Inhibitory Concentration (MIC) [15] [µg/mL]	Minimal Inhibitory Concentration (MIC) [16] [µg/mL]	Minimal Inhibitory Concentration (MIC) [17] [µg/mL]	Minimal Inhibitory Concentration (MIC) [18] [µg/mL]	Minimal Inhibitory Concentration (MIC) [19] [µg/mL]	Minimal Inhibitory Concentration (MIC) [20] [µg/mL]	further results
COC(C)=C1NC(=O)C(C(C)O)NC(=O)c2csc(n2)-c2cc(OC)c(-c3nc(C(N)=O)cs3)nc2-c2csc(n2)C2CSC(=O)c3[nH]c4cccc5c4c3COC(C(OC3CC(C)(O)C(N(C)C)C(C)O3)C(=O)OC5)C(NC(=O)c3csc1n3)c1nc(cs1)C(=O)N2 [O-methyl-L-14E605beta]	0.5	8	4	8	8	4	8	8	8	8	> 32	> 32	> 32	0.5	> 32	> 32	0.25	0.25	0.5	0.25	Minimal Inhibitory Concentration (MIC) [21]: 0.25 µg/mL; Minimal Inhibitory Concentration (MIC) [22]: 0.5 µg/mL; Minimal Inhibitory Concentration (MIC) [23]: 0.25 µg/mL; Minimal Inhibitory Concentration (MIC) [24]: 1 µg/mL; Minimal Inhibitory Concentration (MIC) [25]: 0.25 µg/mL; Minimal Inhibitory Concentration (MIC) [26]: 1 µg/mL; Minimal Inhibitory Concentration (MIC) [27]: 1 µg/mL; Minimal Inhibitory Concentration (MIC) [28]: 0.5 µg/mL; Minimal Inhibitory Concentration (MIC) [29]: 4 µg/mL
COC(C)=C1NC(=O)C(C(C)O)NC(=O)c2csc(n2)-c2cc(O)c(-c3nc(C(N)=O)cs3)nc2-c2csc(n2)C2CSC(=O)c3[nH]c4cccc5c4c3COC(C(OC3CC(C)(O)C(N(C)C)C(C)O3)C(=O)OC5)C(NC(=O)c3csc1n3)c1nc(cs1)C(=O)N2 (stereo not drawn) [LL-14E605-beta]	0.06	0.002	0.015	0.015	0.002	0.015	0.015	0.004	0.015	≤ 0.005	> 64	> 64	0.06	0.002	> 64	> 64	0.015	0.015	0.015	0.008	Minimal Inhibitory Concentration (MIC) [21]: 0.015 µg/mL; Minimal Inhibitory Concentration (MIC) [22]: 0.015 µg/mL; Minimal Inhibitory Concentration (MIC) [23]: 0.008 µg/mL; Minimal Inhibitory Concentration (MIC) [24]: 0.03 µg/mL; Minimal Inhibitory Concentration (MIC) [25]: 0.015 µg/mL; Minimal Inhibitory Concentration (MIC) [26]: 0.06 µg/mL; Minimal Inhibitory Concentration (MIC) [27]: 0.03 µg/mL; Minimal Inhibitory Concentration (MIC) [28]: 0.008 µg/mL; Minimal Inhibitory Concentration (MIC) [29]: 0.06 µg/mL; activity relative to the other components of the LL-14E605 complex [30]: most active component of the LL-14E605 complex
